Measured values: ChEMBL document CHEMBL1811819, “Ethyl malonate amides: a diketo acid offspring fragment for HIV integrase inhibition” (Bioorg Med Chem, 2011)

biological target: T1, Human immunodeficiency virus type 1 integrase (Human immunodeficiency virus 1, UniProt Q7ZJM1); test: Inhibition of HIV1 recombinant integrase 3'-processing and strand transfer activity using 21-mer U5B/U5A duplex oligonucleotides after 1 hr; settings: not given
T1 sequence (Q7ZJM1 whole entry): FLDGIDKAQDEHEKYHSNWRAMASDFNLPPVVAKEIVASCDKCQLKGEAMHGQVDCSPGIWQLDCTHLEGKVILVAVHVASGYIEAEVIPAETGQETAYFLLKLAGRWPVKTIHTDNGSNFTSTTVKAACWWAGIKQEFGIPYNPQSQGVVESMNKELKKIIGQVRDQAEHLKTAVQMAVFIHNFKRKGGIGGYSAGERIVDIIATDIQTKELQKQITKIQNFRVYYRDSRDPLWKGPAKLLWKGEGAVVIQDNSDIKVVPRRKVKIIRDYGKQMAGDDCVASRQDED

IC50	Compound
Not Active	CCOC(=O)CC(=O)Nc1ccc(C)cc1[N+](=O)[O-]
Not Active	CCOC(=O)CC(=O)Nc1ccccc1[N+](=O)[O-]

same assay, conditions: read-out: IC50

IC50 [µM]	Compound
> 100	CCOC(=O)CC(=O)Nc1c(Cl)cccc1Cl
2	CCOC(=O)CC(=O)Nc1ccc(C(=O)O)cc1
> 100	CCOC(=O)CC(=O)NCc1ccc(F)cc1
42	CCOC(=O)CC(=O)Nc1ccc2cccc(O)c2n1
50	CCOC(=O)CC(=O)Nc1ccc(C)cc1
500	CCOC(=O)CC(=O)NS(=O)(=O)c1ccc(C)cc1
> 300	CCOC(=O)CC(=O)Nc1cc(C(=O)O)ccc1O
> 100	Cc1ccc(NC(=O)CC(=O)O)c([N+](=O)[O-])c1

biological target: T1, Human immunodeficiency virus type 1 integrase; test: Inhibition of HIV1 integrase; settings: not given

IC50 [µM]	Compound
47	Cc1ccc2c(O)c(C(=O)O)ccc2n1
> 100	Cc1ccc2ccc(C(=O)O)c(O)c2n1
